Results taken from patent US20060264408A1, “Sod minic multifunctional compounds for treating inflammatory bowel disease” (priority 2003, published 2006).

Tested on: acetic acid-induced colitis
Assay: acetic acid-induced colitis in rats: oxidative stress markers (PCC, TBARS) in colonic tissue
Details: for activity compared with 5-ASA and lipoic acid: acetic acid-induced rat colitis; for TBARS (thiobarbituric acid reactive substrates), Pre-treatment / PCC (tissue protein carbonyl content), Pre-treatment: administered 10 minutes before induction of colitis; for TBARS (thiobarbituric acid reactive substrates), Pre-treatment / PCC (tissue protein carbonyl content), Pre-treatment / TBARS (thiobarbituric acid reactive substrates), Post-treatment / PCC (tissue protein carbonyl content), Post-treatment: 5-ASA 100 mg/kg, LA 50 mg/kg, compounds 1 and 7 50 mg/kg, sacrificed 24 hr post induction; for TBARS (thiobarbituric acid reactive substrates), Pre-treatment: control 18 ± 4, AA alone 187 ± 14; for PCC (tissue protein carbonyl content), Pre-treatment: control 261 ± 27, AA alone 1687 ± 98; for TBARS (thiobarbituric acid reactive substrates), Post-treatment / PCC (tissue protein carbonyl content), Post-treatment: administered 30 minutes after induction of colitis; for TBARS (thiobarbituric acid reactive substrates), Post-treatment: control 15 ± 3, AA alone 163 ± 14; for PCC (tissue protein carbonyl content), Post-treatment: control 273 ± 21, AA alone 1587 ± 95; for treated rats compared with control healthy rats (PCC, TBARS): results of the table, P<0.05

| SMILES | activity compared with 5-ASA and lipoic acid | TBARS (thiobarbituric acid reactive substrates), Pre-treatment | PCC (tissue protein carbonyl content), Pre-treatment | TBARS (thiobarbituric acid reactive substrates), Post-treatment | PCC (tissue protein carbonyl content), Post-treatment | treated rats compared with control healthy rats (PCC, TBARS) |
| --- | --- | --- | --- | --- | --- | --- |
| O=C(O)CCCC[C@@H]1CCSS1 (racemic) [lipoic acid, reference compound] | as effective as 5-ASA | 73 ± 8 | 867 ± 73 | 64 ± 8 | 713 ± 31 |  |
| Cc1cc(O)c(C(=O)O)cc1/N=N\c1ccc2c(c1)C(C)(C)N([O])C2(C)C [Compound 1] | more active than either of LA or ASA used separately or even simultaneously | 27 ± 4 | 293 ± 33 | 18 ± 3 | 278 ± 32 | statistically indifferent from control healthy rats |
| Nc1ccc(O)c(C(=O)O)c1 [Compound 5-ASA, 5-aminosalicylic acid, reference compound] |  | 89 ± 9 | 959 ± 48 | 74 ± 9 | 873 ± 79 |  |
| O=C(O)c1cc2[nH]c(CCCCC3CCSS3)nc2cc1O (stereo not drawn) [Compound 7] | more active than either of LA or ASA used separately or even simultaneously | 21 ± 3 | 284 ± 26 | 19 ± 2 | 269 ± 28 | statistically indifferent from control healthy rats |
